System: cucumber powdery mildew
Assay: Evaluation test for cucumber powdery mildew (cucumber leaf disc, lesion area after 14 days)
Format: in vivo
Settings: 500 ppm in acetone; cucumber leaf disc sprayed with spore suspension; 25° C., 12 hours illumination; lesion area after 14 days vs untreated section
Description: Each of the fluorine-containing pyrimidine compounds prepared in Examples 32 and 36 was dissolved in acetone and diluted to a concentration of 500 ppm. Subsequently, a cucumber leaf disc (20 mm in diameter) was put into the diluted acetone solution and completely wetted, and then the cucumber leaf disc was placed so that the back surface of the cucumber leaf disc was in contact with a plain agar medium that had been prepared separately, and air-dried. After air-drying, a spore suspension of the cucumber powdery mildew was uniformly sprayed on the cucumber leaf disc and air-dried. The cucumber leaf disc was then left in a thermostat (25° C., 12 hours illumination), and after 14 days, the area of lesions was examined to calculate the control value. Note that the control value was calculated according to the following formula. In the following formula, “untreated” means that a cucumber leaf disc was wetted with only acetone as a test solution, and “untreated section” means a section of the wetted cucumber leaf disc. [formula]

Structure (SMILES)	Control value
Cc1ccc(Nc2nc(-c3ccccn3)nc(Cl)c2C(F)(F)F)cc1 [Example 32, 6-chloro-N-(4-methylphenyl)-2-(2-pyridyl)-5-(trifluoromethyl)-4-pyrimidinamine]	57.1
Cc1ccc(Nc2nc(-c3cccnc3)nc(Cl)c2C(F)(F)F)cc1 [Example 36, 6-chloro-N-(4-methylphenyl)-2-(3-pyridyl)-5-(trifluoromethyl)-4-pyrimidinamine]	67.9

— patent US12448362B2, “Fluorine-containing pyrimidine compound and fluorine-containing pyrimidinone compound” (UNIMATEC CO., LTD., priority 2020, dated 2025)
